# Measurements: patent US9963445B2, “Chemical compounds” (SYNGENTA PARTICIPATIONS AG, priority 2013, dated 2018)
# Tested on: Abutilon theophrasti
# Assay: Pre-emergence herbicidal activity, glasshouse pot test
# Assay type: in vivo
# Settings: pre-emergence spray, rate 1000 g/ha, evaluated after 13 days, scale 0-5
# Description: (§1) Seeds of a variety of test species were sown in standard soil in pots. After cultivation for one day (pre-emergence) under controlled conditions in a glasshouse (at 24/16° C., day/night; 14 hours light; 65% humidity), the plants were sprayed with an aqueous spray solution derived from the formulation of the technical active ingredient in acetone/water (50:50) solution containing 0.5% Tween 20 (polyoxyethelyene sorbitan monolaurate, CAS RN 9005-64-5). The test plants were then grown in a glasshouse under controlled conditions (at 24/16° C., day/night; 14 hours light; 65% humidity) and watered twice daily. After 13 days, the test was evaluated (5=total damage to plant; 0=no damage to plant).
# (§2) ABUTH=Abutilon theophrasti; SOLNI=Solanum nigrum; AMARE=Amaranthus retroflexus; SETFA=Setaria faberi; ALOMY=Alopecurus myosuroides; ECHCG=Echinochloa crus-galli, ZEAMX=zea mays.
row,Structure (SMILES),"ABUTH damage score, application pre-emergence"
1,CC1=C(Cl)C(=O)N(c2cc(Cl)ncn2)C1O (centres unmarked) [CF1],1
2,COC1=C(C)C(O)N(c2cc(C(C)(C)C)ncn2)C1=O (centres unmarked) [CI1],5
3,"COC1=C(C)C(O)N(c2cc(NC(C)C)ncn2)C1=O (centres unmarked) [CI4, N2-hydroxy-1-[6-(isopropylamino)pyrimidin-4-yl]-4-methoxy-3-methyl-2H-pyrrol-5-one]",0
4,COC1=C(C)C(O)N(c2cc(C(C)(C)C#N)ncn2)C1=O (centres unmarked) [CI6],5
5,COC1=C(C)C(O)N(c2cc(C(C)(C)F)ncn2)C1=O (centres unmarked) [CI7],5
6,COC1=C(C)C(O)N(c2cc(C(C)(F)F)ncn2)C1=O (centres unmarked) [CI8],5
7,COC1=C(C)C(O)N(c2cc(N(C)C)ncn2)C1=O (centres unmarked) [CI9],2

# Tested on: Alopecurus myosuroides
# Assay: as above
# Assay type: in vivo
# Settings: pre-emergence spray, rate 1000 g/ha, evaluated after 13 days, scale 0-5
# Description: as §1, §2
row,Structure (SMILES),"ALOMY damage score, application pre-emergence"
1,COC1=C(C)C(O)N(c2cc(Cl)c(C(=O)NC(C)(C)C)cn2)C1=O (centres unmarked) [AI18],4
2,COC(=O)c1cnc(N2C(=O)C(OC)=C(C)C2O)cc1Cl (centres unmarked) [AI21],0
3,COC1=C(C)C(O)N(c2cc(C)c(C(=O)NC(C)(C)C)cn2)C1=O (centres unmarked) [AI33],4
4,CC1=C(Cl)C(=O)N(c2cc(Cl)ncn2)C1O (centres unmarked) [CF1],3
5,COC1=C(C)C(O)N(c2cc(C(C)(C)C)ncn2)C1=O (centres unmarked) [CI1],4
6,"COC1=C(C)C(O)N(c2cc(NC(C)C)ncn2)C1=O (centres unmarked) [CI4, N2-hydroxy-1-[6-(isopropylamino)pyrimidin-4-yl]-4-methoxy-3-methyl-2H-pyrrol-5-one]",0
7,COC1=C(C)C(O)N(c2cc(C(C)(C)C#N)ncn2)C1=O (centres unmarked) [CI6],3
8,COC1=C(C)C(O)N(c2cc(C(C)(C)F)ncn2)C1=O (centres unmarked) [CI7],3
9,COC1=C(C)C(O)N(c2cc(C(C)(F)F)ncn2)C1=O (centres unmarked) [CI8],3
10,COC1=C(C)C(O)N(c2cc(N(C)C)ncn2)C1=O (centres unmarked) [CI9],1

# Tested on: zea mays
# Assay: as above
# Assay type: in vivo
# Settings: pre-emergence spray, rate 1000 g/ha, evaluated after 13 days, scale 0-5
# Description: as §1, §2
row,Structure (SMILES),"ZEAMX damage score, application pre-emergence"
1,CC1=C(Cl)C(=O)N(c2cc(Cl)ncn2)C1O (centres unmarked) [CF1],2
2,COC1=C(C)C(O)N(c2cc(C(C)(C)C)ncn2)C1=O (centres unmarked) [CI1],4
3,"COC1=C(C)C(O)N(c2cc(NC(C)C)ncn2)C1=O (centres unmarked) [CI4, N2-hydroxy-1-[6-(isopropylamino)pyrimidin-4-yl]-4-methoxy-3-methyl-2H-pyrrol-5-one]",0
4,COC1=C(C)C(O)N(c2cc(C(C)(C)C#N)ncn2)C1=O (centres unmarked) [CI6],3
5,COC1=C(C)C(O)N(c2cc(C(C)(C)F)ncn2)C1=O (centres unmarked) [CI7],1
6,COC1=C(C)C(O)N(c2cc(C(C)(F)F)ncn2)C1=O (centres unmarked) [CI8],2
7,COC1=C(C)C(O)N(c2cc(N(C)C)ncn2)C1=O (centres unmarked) [CI9],0

# Tested on: Amaranthus retroflexus
# Assay: as above
# Assay type: in vivo
# Settings: pre-emergence spray, rate 1000 g/ha, evaluated after 13 days, scale 0-5
# Description: as §1, §2
row,Structure (SMILES),"AMARE damage score, application pre-emergence"
1,COC1=C(C)C(O)N(c2cc(Cl)c(C(=O)NC(C)(C)C)cn2)C1=O (centres unmarked) [AI18],5
2,COC(=O)c1cnc(N2C(=O)C(OC)=C(C)C2O)cc1Cl (centres unmarked) [AI21],5
3,COC1=C(C)C(O)N(c2cc(C)c(C(=O)NC(C)(C)C)cn2)C1=O (centres unmarked) [AI33],5
4,CC1=C(Cl)C(=O)N(c2cc(Cl)ncn2)C1O (centres unmarked) [CF1],5
5,COC1=C(C)C(O)N(c2cc(C(C)(C)C)ncn2)C1=O (centres unmarked) [CI1],5
6,"COC1=C(C)C(O)N(c2cc(NC(C)C)ncn2)C1=O (centres unmarked) [CI4, N2-hydroxy-1-[6-(isopropylamino)pyrimidin-4-yl]-4-methoxy-3-methyl-2H-pyrrol-5-one]",0
7,COC1=C(C)C(O)N(c2cc(C(C)(C)C#N)ncn2)C1=O (centres unmarked) [CI6],5
8,COC1=C(C)C(O)N(c2cc(C(C)(C)F)ncn2)C1=O (centres unmarked) [CI7],5
9,COC1=C(C)C(O)N(c2cc(C(C)(F)F)ncn2)C1=O (centres unmarked) [CI8],5
10,COC1=C(C)C(O)N(c2cc(N(C)C)ncn2)C1=O (centres unmarked) [CI9],3

# Tested on: Echinochloa crus-galli
# Assay: as above
# Assay type: in vivo
# Settings: pre-emergence spray, rate 1000 g/ha, evaluated after 13 days, scale 0-5
# Description: as §1, §2
row,Structure (SMILES),"ECHCG damage score, application pre-emergence"
1,COC1=C(C)C(O)N(c2cc(Cl)c(C(=O)NC(C)(C)C)cn2)C1=O (centres unmarked) [AI18],5
2,COC(=O)c1cnc(N2C(=O)C(OC)=C(C)C2O)cc1Cl (centres unmarked) [AI21],0
3,COC1=C(C)C(O)N(c2cc(C)c(C(=O)NC(C)(C)C)cn2)C1=O (centres unmarked) [AI33],4
4,CC1=C(Cl)C(=O)N(c2cc(Cl)ncn2)C1O (centres unmarked) [CF1],4
5,COC1=C(C)C(O)N(c2cc(C(C)(C)C)ncn2)C1=O (centres unmarked) [CI1],4
6,"COC1=C(C)C(O)N(c2cc(NC(C)C)ncn2)C1=O (centres unmarked) [CI4, N2-hydroxy-1-[6-(isopropylamino)pyrimidin-4-yl]-4-methoxy-3-methyl-2H-pyrrol-5-one]",0
7,COC1=C(C)C(O)N(c2cc(C(C)(C)C#N)ncn2)C1=O (centres unmarked) [CI6],5
8,COC1=C(C)C(O)N(c2cc(C(C)(C)F)ncn2)C1=O (centres unmarked) [CI7],4
9,COC1=C(C)C(O)N(c2cc(C(C)(F)F)ncn2)C1=O (centres unmarked) [CI8],4
10,COC1=C(C)C(O)N(c2cc(N(C)C)ncn2)C1=O (centres unmarked) [CI9],1

# Tested on: Setaria faberi
# Assay: as above
# Assay type: in vivo
# Settings: pre-emergence spray, rate 1000 g/ha, evaluated after 13 days, scale 0-5
# Description: as §1, §2
row,Structure (SMILES),"SETFA damage score, application pre-emergence"
1,COC1=C(C)C(O)N(c2cc(Cl)c(C(=O)NC(C)(C)C)cn2)C1=O (centres unmarked) [AI18],5
2,COC(=O)c1cnc(N2C(=O)C(OC)=C(C)C2O)cc1Cl (centres unmarked) [AI21],0
3,COC1=C(C)C(O)N(c2cc(C)c(C(=O)NC(C)(C)C)cn2)C1=O (centres unmarked) [AI33],5
4,CC1=C(Cl)C(=O)N(c2cc(Cl)ncn2)C1O (centres unmarked) [CF1],0
5,COC1=C(C)C(O)N(c2cc(C(C)(C)C)ncn2)C1=O (centres unmarked) [CI1],5
6,"COC1=C(C)C(O)N(c2cc(NC(C)C)ncn2)C1=O (centres unmarked) [CI4, N2-hydroxy-1-[6-(isopropylamino)pyrimidin-4-yl]-4-methoxy-3-methyl-2H-pyrrol-5-one]",0
7,COC1=C(C)C(O)N(c2cc(C(C)(C)C#N)ncn2)C1=O (centres unmarked) [CI6],5
8,COC1=C(C)C(O)N(c2cc(C(C)(C)F)ncn2)C1=O (centres unmarked) [CI7],5
9,COC1=C(C)C(O)N(c2cc(C(C)(F)F)ncn2)C1=O (centres unmarked) [CI8],5
10,COC1=C(C)C(O)N(c2cc(N(C)C)ncn2)C1=O (centres unmarked) [CI9],1

# Tested on: Abutilon theophrasti
# Assay: Post-emergence herbicidal activity, glasshouse pot test
# Assay type: in vivo
# Set-up: key: 0 = no damage to plant, 5 = total damage to plant
# Settings: Application post-emergence, rate 1000 g/ha, evaluated after 13 days
# Description: (§3) Seeds of a variety of test species were sown in standard soil in pots. After 8 days cultivation (post-emergence) under controlled conditions in a glasshouse (at 24/16° C., day/night; 14 hours light; 65% humidity), the plants were sprayed with an aqueous spray solution derived from the formulation of the technical active ingredient in acetone/water (50:50) solution containing 0.5% Tween 20 (polyoxyethelyene sorbitan monolaurate, CAS RN 9005-64-5). The test plants were then grown in a glasshouse under controlled conditions (at 24/16° C., day/night; 14 hours light; 65% humidity) and watered twice daily. After 13 days, the test was evaluated (5=total damage to plant; 0=no damage to plant).
# as §2
row,Structure (SMILES),ABUTH herbicidal damage score
1,COC1=C(C)C(O)N(c2cc(Cl)c(C(=O)NC(C)(C)C)cn2)C1=O (centres unmarked) [AI18],5
2,COC(=O)c1cnc(N2C(=O)C(OC)=C(C)C2O)cc1Cl (centres unmarked) [AI21],5
3,COC1=C(C)C(O)N(c2cc(C)c(C(=O)NC(C)(C)C)cn2)C1=O (centres unmarked) [AI33],5
4,CC1=C(Cl)C(=O)N(c2cc(Cl)ncn2)C1O (centres unmarked) [CF1],0

# Tested on: Alopecurus myosuroides
# Assay: as above
# Assay type: in vivo
# Set-up: key: 0 = no damage to plant, 5 = total damage to plant
# Settings: Application post-emergence, rate 1000 g/ha, evaluated after 13 days
# Description: as §3, §2
row,Structure (SMILES),ALOMY herbicidal damage score
1,COC1=C(C)C(O)N(c2cc(Cl)c(C(=O)NC(C)(C)C)cn2)C1=O (centres unmarked) [AI18],5
2,COC(=O)c1cnc(N2C(=O)C(OC)=C(C)C2O)cc1Cl (centres unmarked) [AI21],1
3,COC1=C(C)C(O)N(c2cc(C)c(C(=O)NC(C)(C)C)cn2)C1=O (centres unmarked) [AI33],5
4,CC1=C(Cl)C(=O)N(c2cc(Cl)ncn2)C1O (centres unmarked) [CF1],4

# Tested on: zea mays
# Assay: as above
# Assay type: in vivo
# Set-up: key: 0 = no damage to plant, 5 = total damage to plant
# Settings: Application post-emergence, rate 1000 g/ha, evaluated after 13 days
# Description: as §3, §2
row,Structure (SMILES),ZEAMX herbicidal damage score
1,COC1=C(C)C(O)N(c2cc(Cl)c(C(=O)NC(C)(C)C)cn2)C1=O (centres unmarked) [AI18],4
2,COC(=O)c1cnc(N2C(=O)C(OC)=C(C)C2O)cc1Cl (centres unmarked) [AI21],1
3,COC1=C(C)C(O)N(c2cc(C)c(C(=O)NC(C)(C)C)cn2)C1=O (centres unmarked) [AI33],4
4,CC1=C(Cl)C(=O)N(c2cc(Cl)ncn2)C1O (centres unmarked) [CF1],1

# Tested on: Amaranthus retroflexus
# Assay: as above
# Assay type: in vivo
# Set-up: key: 0 = no damage to plant, 5 = total damage to plant
# Settings: Application post-emergence, rate 1000 g/ha, evaluated after 13 days
# Description: as §3, §2
row,Structure (SMILES),AMARE herbicidal damage score
1,COC1=C(C)C(O)N(c2cc(Cl)c(C(=O)NC(C)(C)C)cn2)C1=O (centres unmarked) [AI18],5
2,COC(=O)c1cnc(N2C(=O)C(OC)=C(C)C2O)cc1Cl (centres unmarked) [AI21],5
3,COC1=C(C)C(O)N(c2cc(C)c(C(=O)NC(C)(C)C)cn2)C1=O (centres unmarked) [AI33],5

# Tested on: Echinochloa crus-galli
# Assay: as above
# Assay type: in vivo
# Set-up: key: 0 = no damage to plant, 5 = total damage to plant
# Settings: Application post-emergence, rate 1000 g/ha, evaluated after 13 days
# Description: as §3, §2
row,Structure (SMILES),ECHCG herbicidal damage score
1,COC1=C(C)C(O)N(c2cc(Cl)c(C(=O)NC(C)(C)C)cn2)C1=O (centres unmarked) [AI18],5
2,COC(=O)c1cnc(N2C(=O)C(OC)=C(C)C2O)cc1Cl (centres unmarked) [AI21],3
3,COC1=C(C)C(O)N(c2cc(C)c(C(=O)NC(C)(C)C)cn2)C1=O (centres unmarked) [AI33],5
4,CC1=C(Cl)C(=O)N(c2cc(Cl)ncn2)C1O (centres unmarked) [CF1],4

# Tested on: Setaria faberi
# Assay: as above
# Assay type: in vivo
# Set-up: key: 0 = no damage to plant, 5 = total damage to plant
# Settings: Application post-emergence, rate 1000 g/ha, evaluated after 13 days
# Description: as §3, §2
row,Structure (SMILES),SETFA herbicidal damage score
1,COC1=C(C)C(O)N(c2cc(Cl)c(C(=O)NC(C)(C)C)cn2)C1=O (centres unmarked) [AI18],5
2,COC(=O)c1cnc(N2C(=O)C(OC)=C(C)C2O)cc1Cl (centres unmarked) [AI21],4
3,COC1=C(C)C(O)N(c2cc(C)c(C(=O)NC(C)(C)C)cn2)C1=O (centres unmarked) [AI33],5
4,CC1=C(Cl)C(=O)N(c2cc(Cl)ncn2)C1O (centres unmarked) [CF1],1
